The text below walks through data of ChEMBL document CHEMBL1212917, “Substituted E-3-(3-indolylmethylene)-1,3-dihydroindol-2-ones with antitumor activity. In depth study of the effect on growth of breast cancer cells” (2010).

Structures are written as SMILES. Where a name gives a salt, the structure may show the parent alone.

By GI50 is commonly meant the concentration at which growth is held to half of that of the control. As a reminder, the LC50 is the concentration lethal to half of the exposed cells or organisms. Lower therefore signals greater toxicity. As usually defined, the TGI is the concentration giving total growth inhibition. Read a low TGI as more potent growth arrest.

Holding throughout (format): functional
Assay [1] is described as follows: Growth inhibition of human Ovarian cancer cells after 48 hrs. The note with it: Cancer cell lines; for CC50: read-out: LC50 (the source's name).
Assay [2] is described as follows: Growth inhibition of human breast cancer cells after 48 hrs. Conditions: Cancer cell lines; for CC50: read-out: LC50 (the source's name).
The nature of assay [3]: Growth inhibition of human leukemia cells after 48 hrs. Conditions: Leukemia cell; for CC50: read-out: LC50 (the source's name).
A short description of assay [4]: Growth inhibition of human CNS cancer cells after 48 hrs. The note with it: Cancer cell lines; for CC50: read-out: LC50 (the source's name).
A short description of assay [5]: Growth inhibition of human prostate cancer cells after 48 hrs. The note with it: Cancer cell lines; for CC50: read-out: LC50 (the source's name).
Assay [6] in a line: Growth inhibition of human melanoma cells after 48 hrs. The note with it: Melanoma cell; for CC50: read-out: LC50 (the source's name).
The subject of another assay is NSCLC. The assay is described as follows: Growth inhibition of human NSCLC cells after 48 hrs.
Assay [7] in a line: Growth inhibition of human renal cancer cells after 48 hrs. Conditions: Cancer cell lines; for CC50: read-out: LC50 (the source's name).
Assay [8] is described as follows: Growth inhibition of human colon cancer cells after 48 hrs. Conditions: Cancer cell lines; for CC50: read-out: LC50 (the source's name).

As to `COc1cc2c(cc1C)NC(=O)/C2=C/c1c(Cl)n(C)c2cc(C)c(OC)cc12`, the concentration for 50% growth inhibition (GI50) was found to be 30.2 µM in [1]; 18.6 µM in assay [2]; 18.2 µM in assay [3]; 26.9 µM in assay [4]; 22.4 µM in [5]; 15.1 µM in [6]. In addition, the GI50 in the assay with NSCLC amounted to 34.7 µM; in assay [7], 41.7 µM; in [8], 22.9 µM. The CC50 in assay [2] came out at 95.5 µM; in assay [3], 97.7 µM; in assay [6], 57.5 µM.
For `CN(C)c1ccc2[nH]c(Cl)c(/C=C3/C(=O)Nc4ccc(O)cc43)c2c1`, the concentration for 50% growth inhibition (GI50) turned out to be 7.24 µM in [1]; 2.88 µM in [2]; 2.24 µM in assay [3]; 3.8 µM in assay [4]; 8.91 µM in [5]; 5.25 µM in assay [6]. For the same compound, the GI50 worked out at 5.13 µM in the assay on NSCLC, 5.13 µM in [7] and 3.89 µM in assay [8]. For the same compound, the CC50 in [6] was found to be 79.4 µM; in [7] it was 91.2 µM; in assay [8] it was 69.2 µM. The compound further returned an LC50 in the assay on NSCLC of 95.5 µM.
Take `CC[C@]1(O)C[C@H]2CN(CCc3c([nH]c4ccccc34)[C@@](C(=O)OC)(c3cc4c(cc3OC)N(C=O)[C@H]3[C@@](O)(C(=O)OC)[C@H](OC(C)=O)[C@]5(CC)C=CCN6CC[C@]43[C@@H]65)C2)C1` [VINCRISTINE SULFATE]: the GI50 is 0.32 µM in assay [1]; 0.32 µM in [2]; 0.1 µM in assay [3]; 0.13 µM in [4]; 0.13 µM in assay [5]; 0.16 µM in [6]. Further, the GI50 in the assay on NSCLC is 0.25 µM; in [7], 0.32 µM; in [8] it was 0.1 µM. Also, the CC50 in [1] was determined as 316 µM; in assay [2] it was 316 µM; in assay [3], 631 µM; in assay [4], 200 µM; in assay [5] it was 316 µM; in assay [6], 251 µM. Also, the figures for the CC50 in [7] and in assay [8] were 251 µM and 79.4 µM, respectively.
Turning to `O=C1Nc2cccc(Cl)c2/C1=C\c1c(Cl)[nH]c2c1ccc1ccccc12`, the 50% growth inhibitory concentration (GI50) in assay [1] was found to be 2.51 µM; in assay [2], 5.01 µM; in assay [3], 5.5 µM; in [4], 3.63 µM; in assay [5] it was 10.2 µM; in assay [6], 4.57 µM. Moreover, the values for the GI50 (with NSCLC; in [7]; in assay [8]) were 9.55 µM, 8.91 µM and 4.9 µM, respectively. Also, the TGI in [1] was found to be 13.2 µM; in [2], 19.9 µM; in [3], 25.7 µM; in assay [4], 17.8 µM; in assay [5], 31.6 µM; in assay [6], 19.1 µM. Also, the results for the TGI (in the assay with NSCLC; in assay [7]; in assay [8]) were 28.2 µM, 23.4 µM and 17.4 µM, respectively. For the same compound, the CC50 in [1] amounted to 57.5 µM; in assay [2], 67.6 µM; in assay [3], 75.9 µM; in assay [4], 53.7 µM; in assay [5], 63.1 µM; in [6], 46.8 µM. The CC50 worked out at 56.2 µM in [7] and 47.9 µM in [8]. This compound also showed an LC50 in the assay on NSCLC of 72.4 µM.
As for `COc1cc2c(/C=C3/C(=O)Nc4ccc(Br)cc43)c(Cl)[nH]c2cc1C`, the GI50 in assay [1] came out at 2 µM; in [2] it was 2.14 µM; in [3], 1.62 µM; in [4] it was 1.58 µM; in assay [5] it was 2.24 µM; in assay [6] it was 2.14 µM. The GI50 in the assay with NSCLC worked out at 3.02 µM; in assay [7], 2.45 µM; in assay [8], 1.95 µM. Besides, the CC50 in assay [1] was determined as 38.9 µM; in assay [2], 50.1 µM; in [3], 37.1 µM; in [4], 35.5 µM; in assay [5] it was 30.9 µM; in assay [6] it was 41.7 µM. In addition, the CC50 was 37.1 µM in [7] and 23.4 µM in assay [8]. The compound also yielded an LC50 in the assay with NSCLC of 53.7 µM.
For the compound `COc1cc2c(/C=C3/C(=O)Nc4ccc(Br)cc43)c(Cl)n(C)c2cc1C`, the GI50 in assay [1] was 3.47 µM; in assay [2] it was 0.95 µM; in [3] it was 2.51 µM; in assay [4], 0.93 µM; in [5], 1.55 µM; in [6], 1.55 µM. The figures for the GI50 (with NSCLC; in [7]; in assay [8]) were 1.91 µM, 1.7 µM and 1.55 µM, respectively. The CC50 in [1] came to 43.6 µM; in assay [2], 31.6 µM; in assay [4], 38.9 µM; in assay [5] it was 26.3 µM; in assay [6], 31.6 µM; in assay [7], 26.9 µM. For the same compound, in [8], the CC50 was found to be 29.5 µM. The compound also registered an LC50 in the assay with NSCLC of 37.1 µM.
Regarding `COc1cc2c(cc1C)N(C)C(=O)/C2=C/c1c(Cl)n(C)c2cc(C)c(OC)cc12`, the GI50 in [1] turned out to be 18.6 µM; in assay [2] it was 6.76 µM; in assay [3], 6.92 µM; in assay [4] it was 10.5 µM; in [5], 35.5 µM; in [6], 16.2 µM. Further, the 50% growth inhibitory concentration (GI50) was determined as 19.5 µM in the assay with NSCLC, 15.8 µM in assay [7] and 20.4 µM in [8]. Also, the CC50 worked out at 89.1 µM in assay [1]; 83.2 µM in assay [2]; 61.7 µM in [4]; 77.6 µM in assay [7]; 97.7 µM in assay [8]. Moreover, the LC50 in the assay on NSCLC worked out at 93.3 µM.
`COc1cc2c(/C=C3/C(=O)N(C)c4ccc(O)cc43)c[nH]c2cc1C`: the GI50 in assay [1] is 5.62 µM; in assay [2] it was 2.75 µM; in assay [3], 3.47 µM; in [4], 3.72 µM; in assay [5], 3.55 µM; in assay [6], 3.24 µM. In addition, the GI50 was 6.03 µM in the assay on NSCLC, 5.89 µM in assay [7] and 2.95 µM in assay [8]. Also, the TGI in [1] is 31.6 µM; in [2] it was 16.2 µM; in assay [3] it was 36.3 µM; in assay [4], 24 µM; in assay [5], 15.8 µM; in [6], 15.1 µM. Besides, the concentration for total growth inhibition (TGI) in the assay on NSCLC was found to be 21.9 µM; in assay [7] it was 28.2 µM; in assay [8], 24.6 µM. The CC50 was found to be 95.5 µM in assay [1]; 63.1 µM in assay [2]; 67.6 µM in assay [4]; 66.1 µM in [6]; 93.3 µM in assay [7]. The same compound displayed a median lethal concentration (LC50) in the assay with NSCLC of 91.2 µM.
As for `COc1cc2c(/C=C3/C(=O)N(C)c4ccccc43)c[nH]c2cc1C`, the GI50 came out at 7.76 µM in assay [1]; 1.78 µM in assay [2]; 2 µM in assay [3]; 1.07 µM in assay [4]; 4.17 µM in [5]; 3.09 µM in assay [6]. The GI50 in the assay on NSCLC came to 6.31 µM; in assay [7], 4.17 µM; in assay [8], 0.76 µM. Also, the concentration for total growth inhibition (TGI) was determined as 60.3 µM in assay [1]; 55 µM in [2]; 35.5 µM in assay [3]; 42.7 µM in assay [4]; 81.3 µM in [5]; 74.1 µM in assay [6]. Also, the values for the TGI (with NSCLC; in assay [7]; in assay [8]) were 66.1 µM, 60.3 µM and 60.3 µM, respectively. Besides, the CC50 in assay [3] is 93.3 µM; in assay [4] it was 95.5 µM; in assay [6], 97.7 µM; in assay [8], 97.7 µM. The LC50 in the assay on NSCLC is 93.3 µM.
Consider `COc1cc2c(/C=C3/C(=O)Nc4ccccc43)c[nH]c2cc1C`, for which the 50% growth inhibitory concentration (GI50) in assay [2] is 0.12 µM; in [3], 0.09 µM. In addition, in assay [4], the CC50 was determined as 53.7 µM.
Regarding `COc1ccc2[nH]cc(/C=C3/C(=O)Nc4ccccc43)c2c1`, the concentration for 50% growth inhibition (GI50) in [1] came out at 6.31 µM; in assay [2] it was 3.47 µM; in assay [3], 2.34 µM; in [4], 6.17 µM; in [5], 5.62 µM; in [6] it was 6.61 µM. The GI50 in the assay on NSCLC was 5.13 µM; in assay [7], 5.75 µM; in assay [8] it was 2.24 µM. The total growth inhibition concentration (TGI) in [1] was 30.2 µM; in assay [2], 18.2 µM; in [3] it was 7.76 µM; in assay [4], 28.8 µM; in assay [5], 24 µM; in assay [6], 27.5 µM. Further, the TGI is 25.1 µM with NSCLC, 26.3 µM in assay [7] and 15.5 µM in assay [8]. Besides, the CC50 amounted to 81.3 µM in assay [1]; 91.2 µM in assay [2]; 43.6 µM in assay [3]; 75.9 µM in assay [4]; 83.2 µM in assay [5]; 75.9 µM in [6]. The CC50 in [7] was 83.2 µM; in assay [8] it was 70.8 µM.
As to `Cc1cc2c(cc1O)/C(=C\c1c(Cl)[nH]c3c1ccc1ccccc13)C(=O)N2`, the concentration for 50% growth inhibition (GI50) in assay [1] was 9.12 µM; in assay [2], 3.72 µM; in assay [3] it was 3.31 µM; in assay [4], 8.71 µM; in [6], 6.46 µM; with NSCLC, 7.94 µM. Further, the values for the GI50 in assay [7] and in [8] were 8.71 µM and 6.61 µM, respectively. Moreover, the total growth inhibition concentration (TGI) is 46.8 µM in assay [1]; 19.1 µM in assay [2]; 38 µM in assay [3]; 24.6 µM in assay [4]; 26.3 µM in [5]; 20.9 µM in assay [6]. The total growth inhibition concentration (TGI) in the assay with NSCLC was 30.2 µM; in assay [7] it was 33.1 µM; in [8], 20.9 µM. For the same compound, the CC50 in assay [1] worked out at 87.1 µM; in assay [2], 69.2 µM; in [4], 67.6 µM; in assay [5] it was 74.1 µM; in assay [6], 57.5 µM; in assay [7], 75.9 µM. In assay [8], the CC50 is 61.7 µM.
The compound `O=C1Nc2ccc(Cl)cc2/C1=C\c1c(Cl)[nH]c2c1ccc1ccccc12` gave a GI50 in assay [5] of 0.38 µM.
With `O=C1Nc2ccc(F)cc2/C1=C\c1c(Cl)[nH]c2c1ccc1ccccc12`, in [2], the GI50 stood at 0.4 µM and the CC50 was found to be 70.8 µM. Moreover, the CC50 in [4] came to 51.3 µM.
The compound `COc1cc2c(cc1C)NC(=O)/C2=C/c1c(Cl)[nH]c2c1ccc1ccccc12` yielded a concentration for 50% growth inhibition (GI50) in assay [4] of 0.31 µM. The LC50 in the assay with NSCLC came out at 47.9 µM.
